Data: paper PMC8113538, “Acute toxicity analysis of an inhibitor of BCL2, Disarib, in rats” (Scientific Reports, 2021)

How the values were obtained:
BCL-xL = test system: BCL-xL; parameters: method as in PMID 28223017, PMID 27693384; details: cited from earlier work
[1] = Disarib solubility assay (shake flask method, HPLC); type: physicochemical; details: Disarib 100 µM
Description: The solubility of Disarib was determined by the shake flask method, as described earlier. Briefly, Disarib (100 μM) was dissolved in various solvents such as alcohol (40, 60, 80 and 100%), acid (0.1, 0.3 and 0.6 N HCl) and DMSO (25, 50, 75 and 100%). Further, solubility of Disarib was also tested in a combination of alcohol (40, 60%) and acid (0.1, 0.3 N). The suspension was vortexed 2–3 min and kept in a water bath for 5 min, as described before[25],[26],[39]. In each case, the samples were diluted in acetonitrile and analyzed using HPLC in acetonitrile:water gradient[27],[40]. The area under the curve (AUC) was determined by using the software LabSolutions, Shimadzu (Japan). The values used for plotting in GraphPad Prism (ver 5.1) softwarewere the mean of three independent experiments. The samples were analyzed by HPLC using the Shimadzu HPLC system. LC was carried out on the C18 analytical column. The mobile phase was the gradient of acetonitrile and water. Disarib specific peaks were detected at 232 nm. The injection volume was 20 μl, and the flow rate was 1.2 ml/min. The standard curves were constructed by plotting the peak area vs. concentration of Disarib[40].

Wistar rats [2] = assay: Histology (H&E) of organs; type: in vivo, Wistar rats (Rattus norvegicus); details: 2000 mg/kg oral, day 14, H&E
Description: At the end of the experimental period (14 days), two animals from each group were sacrificed following CO2 asphyxiation. Liver, kidney, intestine, spleen, lungs, and heart were collected, fixed in 4% paraformaldehyde (PFA) and processed for histology, as described before[44]–[46]. For histological studies, tissues from rats treated with the highest dose (2000 mg/kg) and the vehicle control group were selected. Paraffin blocks were prepared and sections were taken using a rotary microtome (Leica Biosystems, Buffalo Grove, IL, USA) with a thickness of 5 µm. Following deparaffination, sections were stained with hematoxylin and eosin (H&E), mounted in DPX, and imaged under a bright-field microscope (Carl Zeiss AxioVision, Oberkochen, Germany).

mice tumor models = details: cited from earlier work
Wistar rats [3] = assay: Single-dose acute toxicity / LD50 determination with general observation; type: in vivo, Wistar rats (Rattus norvegicus)
Description: All the studies were designed according to the guidelines of the Central Drug Standard Control Organization (Schedule-Y-CDSCO, Appendix III), India (https://cdsco.gov.in/opencms/opencms/en/Drugs/New-Drugs/). Single-dose toxicity analysis was performed in male Wistar rats. Animals were segregated in groups of five, and Disarib was administered using oral gavage (100, 1000, 2000 mg/kg b. wt.). Carboxymethyl cellulose, used for preparing Disarib, served as vehicle control to feed control animals. Mortality, general appearance, and behavior were initially observed for 24 h. Animals were further observed for 14 days and were further subjected to toxicity analysis.
The median lethal dose was determined in male Wistar rats. […] Disarib was orally administered after making solution using carboxymethyl cellulose (100, 1000, 2000 mg/kg), and lethality was evaluated over 14 days after treatment. Carboxymethyl cellulose treated animals served as vehicle control.
General cage-side examination of the treated and control animals were performed every day during the experiment. General behavior, appearance, skin, hairs, secretion (lachrymation), and death were evaluated daily, according to the guidelines of CDSCO, India[41],[42].
Body weight was recorded on every 4th day from the date of administration of Disarib up to […]. Food and water consumption were monitored every day from the date of administration of the compound. During the present study, on every alternate days ~ 250 g food pellet and ~ 500 ml water were given to each cage (control and treatment groups).

[4] = test system: interaction of BCL2 with BAK; parameters: method as in PMID 28223017; details: cited from earlier work
Wistar rats [5] = assay: Serum biochemistry (liver and kidney function); type: in vivo, Wistar rats (Rattus norvegicus); details: serum day 14
Description: After 14 days of Disarib administration, two animals were sacrificed using CO2 asphyxiation from each group, and blood was collected in tubes without using anticoagulant and centrifuged (900×g, 10 min). Serum glutamic pyruvic transaminase (SGPT), serum glutamic oxaloacetic transaminase (SGOT), alkaline phosphatase (ALP), albumin, total protein, bilirubin, blood urea nitrogen (BUN), creatinine, uric acid, and phosphorous were analyzed as described earlier[28],[29]. Analysis of serum samples was performed at Rohana Veterinary Diagnostic Lab, Bangalore, India.

[6] = Wistar rats, 100, 1000, 2000 mg/kg oral

SMILES: O=C1Nc2ccccc2/C1=C/c1c(-c2ccc(Br)cc2)nc2sc(Cc3ccc(Cl)cc3)nn12 [Disarib]
- interaction with BCL-xL (BCL-xL): not with other antiapoptotic proteins such as BCL-xL
- solubility in HCl ([1]; 0.1, 0.3 and 0.6 N HCl tested): soluble only in higher acidic conditions such as 0.3 N HCl
- DMSO concentration giving complete dissolution ([1]; HPLC at 232 nm): > 75%
- solubility in alcohol in combination with HCl ([1]; alcohol 40, 60% with HCl): soluble in 40% alcohol and 0.3 and 0.6 N HCl
- intestine histology (Wistar rats [2]): Normal structure and organization
- kidney histology (Wistar rats [2]): No glomerular dilation and tubular necrosis
- liver histology (Wistar rats [2]): no cellular change in lobular liver texture, hepatocytes and sinusoidal spaces
- lungs and heart histology (Wistar rats [2]): did not show difference in the structure of alveoli and cardiac muscles
- spleen histology (Wistar rats [2]): no difference in spleen architecture
- tumor regression (mice tumor models; mice, intraperitoneal route): efficient tumor regression comparable to that of ABT199
- tumor progression (mice tumor models; oral administration, multiple mice tumor models): significant reduction in tumor progression
- food and water consumption (Wistar rats [3]; Wistar rats, 100, 1000, 2000 mg/kg oral, assessed daily): no difference in eating and drinking habits
- cage-side signs (behavior, appearance, lachrymation, locomotion, hair, skin) (Wistar rats [3]; Wistar rats, 100, 1000, 2000 mg/kg oral, daily examination): comparable to the vehicle control group
- body weight (Wistar rats [3]; Wistar rats, 100, 1000, 2000 mg/kg oral, weighed every 4 days up to 32 days): gradual increase in body weight of the animals, both in control and treated groups
- mortality and visible signs of toxicity (Wistar rats [3]; Wistar rats, highest dose 2000 mg/kg b. wt. oral): did not cause mortality or any visible sign of toxicity
- Maximum Tolerated Dose (MTD) (Wistar rats [3]; Wistar rats, single oral dose, estimated): > 2000 mg/kg
- LD50 (Wistar rats [3]; male Wistar rats, single oral dose, 14 days observation): > 2000 mg/kg b. wt
- disruption of BCL2-BAK interaction [4]: disruption of the interaction of BCL2 with its proapoptotic partner BAK
- hepatic function tests (SGPT, ALP, SGOT, total protein, Albumin, Bilirubin) (Wistar rats [5]; [6]): did not cause any adverse effect on liver function
- renal function (BUN, Creatinine, Phosphorous, Uric acid) vs control (Wistar rats [5]; [6]): did not have any appreciable variation
- ALP level vs control (Wistar rats [5]; Wistar rats, 100 and 1000 mg/kg oral, higher than control): the increase was limited and was not significant
- SGOT level vs control (Wistar rats [5]; Wistar rats, maximal dose (2000 mg/kg) oral, within normal range, not significant): marginally higher
